From PMC9820444, “Design and Synthesis of Acridine-Triazole and Acridine-Thiadiazole Derivatives and Their Inhibitory Effect against Cancer Cells” (International Journal of Molecular Sciences, 2022) come the findings set out here.

Data set [1] has as its system human foreskin fibroblasts (HFF). Nature of the data set: MTT antiproliferative assay, HFF. It is filed as cell-based. The note with it: read-out: Effect against cell viability (IC50), HFF. As for the experimental part: (§1) All newly synthesized acridinyl derivatives (4–6) were screened for their anticancer activities in comparison to the reference compounds, 5-FU and cis-platinum. Compounds 4–6 were tested for their in vitro antitumor activities against HFF, MGC-803, BEL-7404, NCI-H460, and T24 tumor cell lines, and human normal liver cells (LO2), and the results are shown in Table 1. Most of the compounds had strong selective potency against MGC-803 and T24 cancer cells. […] In the T24 cell line assay, many compounds, especially the series of compound 4, had significant activity against T24. This implies that there is a significant increase in potency after the introduction of the aroyl thiourea group. […] To our delight, most 1,2,4-triazolethiones (5) and 1,2,4-thiadiazoles (6) have low toxicity to LO2 compared with the positive control.
(§2) Test samples, including compounds 4–6 and commercial classical anticancer drugs (5-FU and cis-platinum), were screened for their anti-cancer activity against HFF human foreskin fibroblast cells, MGC-803 human gastric cancer cells, BEL-7404 human hepatocellular carcinoma cells, NCI-H460 human large cell carcinoma cells, and T24 human bladder carcinoma cells using the 3-(4,5-dimethylthiazol-2-yl)-2,5-diphenyltetrazoliumbromide (MTT) assay method cited in the literature. The initial concentration of all the test samples was 100 μg/mL, which was serially diluted in complete medium with ten-fold dilutions to give six concentrations per compound. Their cytotoxicity was determined in 96-well flat bottomed microtiter plates. All the test samples were tested in triplicate. The results were expressed as the drug concentration that inhibited cell growth by 50% as compared to the controls (IC50). The IC50 values were calculated from regression lines obtained from the percent cell growth inhibition plotted as a function of the logarithm of the dose.

Data set [2] deals with bladder cancer cells (T24). In words: MTT antiproliferative assay, T24. It is filed as cell-based, human. The note with it: read-out: Effect against cell viability (IC50), T24. As for the experimental part:
as §1, §2

Data set [3] has as its system human gastric cancer cells-803 (MGC-803). In words: MTT antiproliferative assay, MGC-803. It is filed as cell-based. To be noted: read-out: Effect against cell viability (IC50), MGC-803. As for the experimental part:
as §1, §2

A further data set has as its system zebrafish embryos. More on the design: mortality rate of zebrafish embryos: dose or concentration left out as unconfirmed. The note with it: for MAR (malformation rate) / MOR (mortality rate): zebrafish embryos 72 hpf; for total mortality and malformation rate: zebrafish embryos. The protocol: In this experiment, 2% DMSO was used to dissolve the target products, and the abnormal rate (MAR) and mortality rate (MOR) of zebrafish embryos (72 hpf) were used for statistics.
The zebrafish embryos were collected at 6 hpf and randomly divided into naive control (embryos maintained in distilled water), vehicle control (embryos treated with 2% DMSO), and drug groups. Stock solutions of all drugs were prepared in 2% DMSO as a solubilizing agent and diluted to three concentrations (0.5 mg/mL, 1 mg/mL, and 2 mg/mL). Each group had 20 embryos per test concentration. […] Each compound was evaluated in three independent biological experiments.

In data set [4] the test system is human normal liver cells (LO2). Nature of the data set: Cytotoxicity against normal liver cells LO2. It is filed as cell-based. The note with it: MTT, read-out: Effect against cell viability (IC50), LO2. The protocol:
as §1, §2

Data set [5] relates to hepatocellular carcinoma bel-7404 (BEL-7404). Nature of the data set: MTT antiproliferative assay, BEL-7404. It is filed as cell-based, human. The note with it: read-out: Effect against cell viability (IC50), BEL-7404. The protocol: as §1, §2
Data set [6] concerns large cell lung cancer cells (NCI-H460). Nature of the data set: MTT antiproliferative assay, NCI-H460. It is filed as cell-based, human. To be noted: read-out: Effect against cell viability (IC50), NCI-H460. As for the experimental part: as §1, §2

Where two headings read alike, the source gives them in different places. Marks after values point to notes of the source that are not given here. Where only a bound is given, the exact number is not on record here.

Turning to `COc1ccc2nc3ccccc3c(NC(=S)NNC(=O)c3ccccc3)c2c1` [4b, 1-2′-methoxyl acridinyl-3-benzoyl thiosemicarbazides], the IC50 came out at 72.6 ± 3.57 µM in data set [1]; 29.8 ± 2.85 µM in data set [2]; 14.5 ± 2.06 µM in data set [3] (MTT); 34.4 ± 2.05 µM in data set [4]; 25.8 ± 2.83 µM in data set [5]; 42.3 ± 2.15 µM in data set [6]. For the same compound, the “MAR (malformation rate)” value in the data set with zebrafish embryos (1 mg/mL) is reported as 70% ^a; in the data set with zebrafish embryos (1.5 mg/mL) it was 70% ^a; in the data set on zebrafish embryos (2 mg/mL) it was 55% ^a. For the same compound, the “MOR (mortality rate)” value in the data set on zebrafish embryos (1 mg/mL) was 15% ^a; in the data set with zebrafish embryos (1.5 mg/mL), 15% ^a; in the data set on zebrafish embryos (2 mg/mL), 40% ^a. In addition, the “total mortality and malformation rate” value in the data set on zebrafish embryos (2.0 mg.L^−1) was 100%.

With `COc1ccc(C(=O)NNC(=S)Nc2c3ccccc3nc3ccc(OC)cc23)cc1` [4c, 1-2′-methoxyl acridinyl-3-4′-methoxy benzoyl thiosemicarbazides], the IC50 in data set [1] is 63.7 ± 2.59 µM; in data set [2], 11.2 ± 2.51 µM; in data set [3] (MTT), 21 ± 1.55 µM; in data set [4], 19.4 ± 1.69 µM; in data set [5], 13.3 ± 1.37 µM; in data set [6], 52.4 ± 3.67 µM. For the same compound, the “MAR (malformation rate)” value in the data set on zebrafish embryos (1 mg/mL) was 50% ^a; in the data set with zebrafish embryos (1.5 mg/mL), 60% ^a; in the data set with zebrafish embryos (2 mg/mL), 50% ^a. Moreover, the results for the “MOR (mortality rate)” value with zebrafish embryos (1 mg/mL), with zebrafish embryos (1.5 mg/mL) and in the data set on zebrafish embryos (2 mg/mL) were 45% ^a, 25% ^a and 35% ^a, respectively.

With `COc1ccc2nc3ccccc3c(NC(=S)NNC(=O)c3ccc([N+](=O)[O-])cc3)c2c1` [4d, 1-2’-methoxyl acridinyl-3-4′-nitro benzoyl thiosemicarbazides], the IC50 in data set [1] was determined as 65.3 ± 3.82 µM; in data set [2], 13 ± 1.64 µM; in data set [3] (MTT), 35 ± 3.57 µM; in data set [4] it was 25.1 ± 1.33 µM; in data set [5], 43.9 ± 2.59 µM; in data set [6], 40.5 ± 4.52 µM.

Turning to `Cc1ccc2[nH]c3ccccc3c(=NC(=S)NNC(=O)c3ccncc3)c2c1` [4f, 1-2′-methyl acridinyl-3-4′-pyridinamide thiourea], the IC50 in data set [1] amounted to 55.2 ± 1.36 µM; in data set [2] it was 9.66 ± 1.54 µM; in data set [3] (MTT), 11.2 ± 0.96 µM; in data set [4] it was 10.1 ± 0.96 µM; in data set [5], 34.4 ± 2.24 µM; in data set [6], 53.7 ± 3.04 µM. Moreover, the results for the “MAR (malformation rate)” value with zebrafish embryos (1 mg/mL), in the data set with zebrafish embryos (1.5 mg/mL) and with zebrafish embryos (2 mg/mL) were 60% ^b, 80% ^b and 15% ^b, respectively. Besides, the “MOR (mortality rate)” value with zebrafish embryos (1 mg/mL) was 10% ^b; in the data set with zebrafish embryos (1.5 mg/mL), 20% ^b; with zebrafish embryos (2 mg/mL), 85% ^b. Besides, in the data set with zebrafish embryos (2.0 mg.L^−1), the “total mortality and malformation rate” value was found to be 100%.

Turning to `Cc1ccc2nc3ccccc3c(NC(=S)NNC(=O)c3ccccc3)c2c1` [4g, 1-2′-methyl acridinyl-3-benzoyl thiosemicarbazides], the IC50 in data set [1] came out at 70.1 ± 3.97 µM; in data set [2], 25.8 ± 1.51 µM; in data set [3] (MTT) it was 13.5 ± 1.59 µM; in data set [4] it was 14.3 ± 1.52 µM; in data set [5], 20.2 ± 4.13 µM; in data set [6], 39 ± 2.05 µM.

As to `Cc1ccc2nc3ccccc3c(NC(=S)NNC(=O)c3ccc([N+](=O)[O-])cc3)c2c1` [4i, 1-2′-methyl acridinyl-3-4’-nitro benzoyl thiosemicarbazides], the IC50 in data set [1] is 60.7 ± 2.31 µM; in data set [2] it was 9.89 ± 1.45 µM; in data set [3] (MTT), 22.3 ± 1.35 µM; in data set [4], 11.8 ± 1.38 µM; in data set [5], 23.3 ± 1.33 µM; in data set [6] it was 60.4 ± 2.95 µM.

As for `Cc1ccc2nc3ccccc3c(NC(=S)NNC(=O)c3ccc(Cl)cc3)c2c1` [4j, 1-2′-methyl acridinyl-3-4′-chloro benzoyl thiosemicarbazides], the IC50 in data set [1] is 61.5 ± 1.85 µM; in data set [2] it was 19.9 ± 1.32 µM; in data set [3] (MTT), 16.4 ± 1.56 µM; in data set [4] it was 20.5 ± 1.39 µM; in data set [5], 24.4 ± 3.53 µM; in data set [6] it was 32.2 ± 2.36 µM.

On to `O=c1[nH]cc(F)c(=O)[nH]1` [5-FU, 5-fluorouracil, reference compound], for which the IC50 turned out to be 25.4 ± 1.27 µM in data set [1] (Homo sapiens, Fibroblast); 32 ± 1.23 µM in data set [2] (Homo sapiens); 30.4 ± 2.87 µM in data set [3] (Homo sapiens, MGC-803, MTT); 40.1 ± 1.65 µM in data set [4] (Homo sapiens); 34.5 ± 1.18 µM in data set [5] (Homo sapiens); 44 ± 0.54 µM in data set [6] (Homo sapiens).

Turning to `Cc1ccc2nc3ccccc3c(-n3c(-c4ccccc4)n[nH]c3=S)c2c1` [5g, 4-(2-methylacridin-9-yl)-5-phenyl-2,4-dihydro-3H-1,2,4-triazole-3-thione], the melting point lay within 292 to 293 °C. The IC50 in data set [1] (Homo sapiens, Fibroblast) was found to be 68.3 ± 2.74 µM. In addition, the IC50 in data set [2] (Homo sapiens) was 19.4 ± 2.17 µM. In data set [4] (Homo sapiens), the IC50 was 44.6 ± 2.35 µM. The IC50 in data set [5] (Homo sapiens) was 20.5 ± 1.13 µM. Moreover, in data set [6] (Homo sapiens), the IC50 was 30.6 ± 2.21 µM.

As for `COC1=CC2C(=Nc3nnc(-c4ccncc4)s3)c3ccccc3NC2C=C1` (centres unmarked) [6a, 7-methoxy-N-(5-(pyridin-4-yl)-1,3,4-thiadiazol-2-yl)-10,10a-dihydroacridin-9(8aH)-imine], the IC50 worked out at 68.8 ± 1.87 µM in data set [1] (Homo sapiens, Fibroblast); 10.2 ± 0.96 µM in data set [2] (Homo sapiens); 14.3 ± 1.29 µM in data set [3] (Homo sapiens, MGC-803, MTT); 40.2 ± 2.74 µM in data set [4] (Homo sapiens); 19.2 ± 1.3 µM in data set [5] (Homo sapiens); 25.3 ± 3.57 µM in data set [6] (Homo sapiens). Moreover, the “MAR (malformation rate)” value in the data set on zebrafish embryos (1 mg/mL) was 15% ^b; with zebrafish embryos (1.5 mg/mL) it was 95% ^b; with zebrafish embryos (2 mg/mL), 90% ^b. For the same compound, the “MOR (mortality rate)” value in the data set with zebrafish embryos (1 mg/mL) was found to be 0%; in the data set with zebrafish embryos (1.5 mg/mL), 0%; in the data set on zebrafish embryos (2 mg/mL), 5% ^b.

Turning to `COC1=CC2C(=Nc3nnc(-c4ccc(Cl)cc4)s3)c3ccccc3NC2C=C1` (centres unmarked) [6e, 7-methoxy-N-(5-(4-chlorophenyl)-1,3,4-thiadiazol-2-yl)-10,10a-dihydroacridin-9(8aH)-imine], the IC50 in data set [1] (Homo sapiens, Fibroblast) turned out to be 44.7 ± 1.44 µM; in data set [2] (Homo sapiens), 14.9 ± 1.3 µM; in data set [3] (Homo sapiens, MGC-803, MTT), 9.95 ± 1.03 µM; in data set [3] (MTT) it was 9.01 ± 1.32 µM; in data set [4] (Homo sapiens), 33.6 ± 2.01 µM; in data set [5] (Homo sapiens), 21.3 ± 2.81 µM. In addition, the IC50 in data set [6] (Homo sapiens) stood at 27.9 ± 3.97 µM. In addition, the results for the “MAR (malformation rate)” value in the data set on zebrafish embryos (1 mg/mL), with zebrafish embryos (1.5 mg/mL) and in the data set with zebrafish embryos (2 mg/mL) were 10% ^c, 70% ^c and 35% ^c, respectively. Also, the “MOR (mortality rate)” value in the data set on zebrafish embryos (1 mg/mL) amounted to 10% ^c; in the data set on zebrafish embryos (1.5 mg/mL) it was 30% ^c; with zebrafish embryos (2 mg/mL), 65% ^c.

Take `CC1=CC2C(=Nc3nnc(-c4ccc([N+](=O)[O-])cc4)s3)c3ccccc3NC2C=C1` (centres unmarked) [6i, 7-methyl-N-(5-(4-nitrophenyl)-1,3,4-thiadiazol-2-yl)-10,10a-dihydroacridin-9(8aH)-imine]: the IC50 in data set [1] (Homo sapiens, Fibroblast) was 92 ± 2.99 µM; in data set [2] (Homo sapiens) it was 29.9 ± 2.45 µM; in data set [3] (Homo sapiens, MGC-803, MTT) it was 22.9 ± 1.85 µM; in data set [4] (Homo sapiens), > 100 µM; in data set [5] (Homo sapiens), 43.7 ± 2.36 µM; in data set [6] (Homo sapiens), 36.4 ± 3.15 µM. Besides, the “mortality rate of zebrafish embryos” value in the data set with zebrafish embryos was determined as 0%. Also, the “malformation rate of zebrafish embryos” value with zebrafish embryos (2.0 mg.L^−1) was 25%. Besides, the “MAR (malformation rate)” value with zebrafish embryos (1 mg/mL) worked out at 0%; with zebrafish embryos (1.5 mg/mL), 10% ^b; with zebrafish embryos (2 mg/mL), 25% ^c. Also, the “MOR (mortality rate)” value in the data set with zebrafish embryos (1 mg/mL), in the data set with zebrafish embryos (1.5 mg/mL) and with zebrafish embryos (2 mg/mL) was 0% each time.

For the compound `N.N.[Cl][Pt][Cl]` [cis-platinum, reference compound], the IC50 was found to be 10.8 ± 0.34 µM in data set [1]; 9.13 ± 1.54 µM in data set [2]; 16 ± 1.53 µM in data set [3] (MTT); 21.4 ± 1.25 µM in data set [4]; 10 ± 0.52 µM in data set [5]; 7.13 ± 1.24 µM in data set [6].
